Earlier results as cited in patent US20200085789A1, “USE OF A PROTEASOME INHIBITOR FOR THE TREATMENT OF CENTRAL NERVOUS SYSTEM (CNS) CANCERS” (Celgene International II Sàrl, priority 2017, published 2020).

Conditions: in vivo; cited from earlier work

CC(C)C[C@H](NC(=O)[C@H](Cc1ccccc1)NC(=O)c1cnccn1)B(O)O [BTZ, bortezomib, reference compound]
crossing of the blood brain barrier: does not cross the blood brain barrier
